Assay results: patent US20260207602A1, “EGFR INHIBITORS” (Blueprint Medicines Corporation, priority 2022, published 2026)

Target: T1, EGFR L858R (Homo sapiens, UniProt P00533, L858R)
T1 construct: purchased SignalChem E10-122BG
Assay: Biochemical EGFR inhibition assay (Caliper mobility shift), EGFR L858R
Settings: biochemical Caliper mobility shift assay, EGFR L858R enzyme; read-out: Enz EGFR L858R IC50
Procedure: Inhibitory effects of the compounds of the disclosure were measured in biochemical assays that measure the phosphorylation activity of EGFR enzyme phosphorylates 2.5 micromolar 5-FAM-[…]-CONH2 peptide substrate (ProfilerPro Kinase Peptide Substrate 22, PerkinElmer, Part #760366) in the presence of adenosine-5′-triphosphate (ATP) and varying concentrations of the test compound in 100 mM 2-[4-(2-hydroxyethyl)piperazin-1-yl]ethanesulfonic acid (HEPES), pH 7.5, 10 mM MgCl2, 0.015% Brij-35, 1 mM dithiothreitol (DTT), 1.0% dimehylsulfoxide (DMSO). Assays were performed at 1.0 mM ATP or at ATP Km of the EGFR enzymes. Reactions proceeded until between 10% to 20% total peptides were phosphorylated at room temperature (25° C.) and were terminated with 35 mM 2,2′,2″,2′″-(ethane-1,2-diyldinitrilo)tetraacetic acid (EDTA). Product was detected using the Caliper mobility shift detection method where the phosphorylated peptide (product) and substrate were electrophoretically separated and measured. Percent activity was plotted against log concentration of compound and points to generate an apparent IC50. The following enzyme forms of • EGFR were examples that were used in these assays: • EGFR WT (SignalChem, E10-112G) • EGFR L858R (SignalChem, E10-122BG) • EGFR (d746-750) (SignalChem, E10-122JG) • EGFR L858R C797S (SignalChem, E10-122ZG) • EGFR (d746-750) C797S (SignalChem, E10-122TG)

T1 sequence (P00533 25-1210 L858R): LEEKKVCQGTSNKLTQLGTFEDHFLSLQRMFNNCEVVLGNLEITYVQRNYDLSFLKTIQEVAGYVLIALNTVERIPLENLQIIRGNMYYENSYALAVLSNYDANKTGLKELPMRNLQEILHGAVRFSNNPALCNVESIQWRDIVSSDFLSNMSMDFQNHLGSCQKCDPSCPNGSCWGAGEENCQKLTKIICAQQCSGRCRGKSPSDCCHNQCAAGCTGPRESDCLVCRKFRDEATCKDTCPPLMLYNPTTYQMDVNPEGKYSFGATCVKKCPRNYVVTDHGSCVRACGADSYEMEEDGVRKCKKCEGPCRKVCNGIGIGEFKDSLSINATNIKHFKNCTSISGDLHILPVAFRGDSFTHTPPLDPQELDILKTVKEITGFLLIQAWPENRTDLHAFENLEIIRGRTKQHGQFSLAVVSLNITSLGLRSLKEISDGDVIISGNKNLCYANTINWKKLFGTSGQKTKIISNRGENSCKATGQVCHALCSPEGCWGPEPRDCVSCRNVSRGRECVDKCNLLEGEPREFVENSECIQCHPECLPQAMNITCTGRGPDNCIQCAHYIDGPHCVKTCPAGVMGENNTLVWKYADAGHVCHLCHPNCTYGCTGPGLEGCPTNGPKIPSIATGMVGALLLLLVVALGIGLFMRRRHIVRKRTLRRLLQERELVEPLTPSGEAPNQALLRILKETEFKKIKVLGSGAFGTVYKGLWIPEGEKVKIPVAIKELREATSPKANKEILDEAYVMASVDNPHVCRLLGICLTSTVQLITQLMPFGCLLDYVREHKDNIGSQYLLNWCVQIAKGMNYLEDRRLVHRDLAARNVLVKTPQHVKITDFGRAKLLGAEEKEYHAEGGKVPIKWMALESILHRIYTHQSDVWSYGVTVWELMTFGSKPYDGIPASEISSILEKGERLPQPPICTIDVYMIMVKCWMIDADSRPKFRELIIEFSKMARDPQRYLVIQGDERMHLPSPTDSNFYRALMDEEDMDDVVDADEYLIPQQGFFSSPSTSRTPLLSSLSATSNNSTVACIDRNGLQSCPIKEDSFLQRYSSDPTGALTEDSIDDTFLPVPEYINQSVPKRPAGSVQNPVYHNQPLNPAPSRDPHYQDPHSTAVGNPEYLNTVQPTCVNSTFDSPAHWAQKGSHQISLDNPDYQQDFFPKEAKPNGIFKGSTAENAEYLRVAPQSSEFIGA

SMILES	IC50 [nM]
CN(C)C[C@@H](Oc1cc(-c2cnn(C)c2)cc2ncnc(Nc3ccc4ncsc4c3)c12)C(F)F (single isomer, unassigned) [Example 152]	≤ 10
C[C@@H](Oc1cc(-c2cnn(CC(C)(C)O)c2)cc2ncnc(Nc3ccc4ncsc4c3)c12)C1COC1 (single isomer, unassigned) [Example 128]	≤ 10
C[C@H](CN(C)C)Oc1cc(N2CC[C@@H](C(C)(C)O)C2)cc2ncnc(Nc3ccc4ncsc4c3)c12 (single isomer, unassigned) [Example 156]	≤ 10
C[C@@H](Oc1cc(-c2cnn(C)c2)cc2ncnc(Nc3ccc4ncsc4c3)c12)[C@H]1CN(C)CCO1 (single isomer, unassigned) [Example 210]	≤ 10
COc1nn(C)cc1-c1cc(O[C@H](C)C2COC2)c2c(Nc3ccc4ncsc4c3F)ncnc2c1 (single isomer, unassigned) [Example 79]	≤ 10
CC[C@@H](Oc1cc(-c2cnn(C)c2)cc2ncnc(Nc3ccc4ncsc4c3F)c12)C1COC1 (single isomer, unassigned) [Example 93]	≤ 10
COCC[C@@H](C)Oc1cc(-c2cnn(C)c2)cc2ncnc(Nc3ccc4ncsc4c3F)c12 (single isomer, unassigned) [Example 109]	≤ 10
C[C@@H](Oc1cc(-c2cnn(C)c2)cc2ncnc(Nc3ccc4ncsc4c3F)c12)[C@H]1CCOC1 (single isomer, unassigned) [Example 89]	≤ 10
CC(Oc1cc(-c2cn[nH]c2)cc2ncnc(Nc3ccc4ncsc4c3)c12)C1COC1 (single isomer, unassigned) [Example 123]	≤ 10
C[C@@H](Oc1cc(-c2cnn(C)c2)cc2ncnc(Nc3ccc4ncsc4c3F)c12)C1(C)COC1 (single isomer, unassigned) [Example 87]	≤ 10
C[C@@H](Oc1cc(-c2cnn(C)c2)cc2ncnc(Nc3ccc4ncsc4c3)c12)[C@H]1CNCCO1 (single isomer, unassigned) [Example 208]	≤ 10

More lines, now with the values ahead:

IC50 [nM]	SMILES
≤ 10	C[C@H](CO)n1cc(-c2cc(O[C@H](C)C3COC3)c3c(Nc4ccc5ncsc5c4)ncnc3c2)cn1 (single isomer, unassigned) [Example 298]
≤ 10	CN1CC[C@@H](Nc2cc3c(Nc4ccc5ncsc5c4)ncnc3cc2-c2ccn(C)n2)[C@H](F)C1 (single isomer, unassigned) [Example 328]
≤ 10	COc1nn(C)cc1-c1cc(O[C@H]2CCNC[C@@H]2F)c2c(Nc3ccc4ncsc4c3)ncnc2c1 (single isomer, unassigned) [Example 361]
≤ 10	C[C@@H](Oc1cc(-c2cnn(C(C)(C)CO)c2)cc2ncnc(Nc3ccc4ncsc4c3)c12)C1COC1 (single isomer, unassigned) [Example 292]
≤ 10	Cn1cc(-c2cc(O[C@H]3CCNC[C@@H]3F)c3c(Nc4ccc5ncsc5c4)ncnc3c2)cn1 (single isomer, unassigned) [Example 347]
≤ 10	CN1CC[C@@H](Oc2cc(-c3cnn(C)c3)cc3ncnc(Nc4ccc5ncsc5c4)c23)[C@@H](F)C1 (single isomer, unassigned) [Example 341]
≤ 10	C[C@H](Oc1cc(-c2cnn(C)c2)cc2ncnc(Nc3ccc4ncsc4c3F)c12)C(=O)N1CCOCC1 (single isomer, unassigned) [Example 283]
≤ 10	C[C@H](CO)Oc1cc(-c2cnn(C)c2)cc2ncnc(Nc3ccc4ncsc4c3F)c12 (single isomer, unassigned) [Example 290]
≤ 10	CN1CC[C@H](Nc2cc3c(Nc4ccc5ncsc5c4)ncnc3cc2-c2ccn(C)n2)[C@H](F)C1 (single isomer, unassigned) [Example A06, N4-(benzo[d]thiazol-6-yl)-N6-((3S,4R)-3-fluoro-1-methylpiperidin-4-yl)-7-(1-methyl-1H-pyrazol-3-yl)quinazoline-4,6-diamine or N4-(benzo[d]thiazol-6-yl)-N6-((3R,4S)-3-fluoro-1-methylpiperidin-4-yl)-7-(1-methyl-1H-pyrazol-3-yl)quinazoline-4,6-diamine]
